Reference: US12714696B2, “Low dose fluralaner compositions for protection against parasitic invertebrate pest” (VIRBAC, priority 2019, dated 2026)
“And” between values parts separate entries of the source, which are not always exact repeats. Equal values may be shown once. Read-outs that look alike come from different tables or passages of the source.

Test: Pharmacokinetics after repeated oral administration of 35 μg/kg of fluralaner in dogs after feeding
Type: in vivo, beagle dogs
Conditions: for concentration at 24 h / concentration at 48 h / concentration at 72 h / concentration at 96 h / concentration at 120 h / concentration at 240 h / concentration at 360 h / concentration at 480 h: po, 35 μg/kg
Experimental: The first objective of the study was to obtain the pharmacokinetic parameters after repeated oral administration of 35 μg/kg of fluralaner in dogs, 30 to 35 minutes after feeding.
The second objective was to investigate the pharmacodynamics between the fluralaner plasmatic dose and the effectiveness against fleas. • IVP: Investigational Veterinary Product, is pure Fluralaner+DMSO (35 μg/kg on Days 0 to 3 (0.35 mL/kg)) • Control product is DMSO (0.35 mL/kg on Days 0 to 3)
On Days 0, 1, 2 and 3, all dogs assigned to group 2 received the Investigational Veterinary Product. On Days 0 to 3 all dogs in group 1 received the control product at a volume equal to the dogs in group 2. Dogs assigned to group 1 received the control product and served as Placebo controls. The quantity of Investigational Veterinary Product and control product administered was calculated according to the dog's individual body weight measured on Day −1.
Blood samples were taken from all dogs prior to Investigational Veterinary Product treatment or control product administration on Day 0 and on Days 1 (+24 hours), 2 (+48 hours), 3 (+72 hours), 4 (+96 hours), 5 (+120 hours), 10 (+240 hours), 15 (+360 hours), 20 (+480 hours), 24 (+576 hours) and Day 28 (+672 hours).
On days of administration of pre-Investigational Veterinary Product or Control Product, dogs were fed (the same dog food) approximately half of their normal daily ration 30 minutes to 35 minutes prior to administration. Food consumed by the time of administration was calculated and recorded. The remainder of their normal daily ration was fed immediately after administration.
The PK parameters of fluralaner were calculated using a non-compartmental approach.
The following rules were applied for the calculation of the PK parameters: • All the plasma concentrations, validated by the bioanalytical laboratory, were used for the PK analysis. • The actual blood sampling times were used throughout. • Concentrations below the Limit of Quantification (LOQ) value were considered as zero from time zero (pre-dose) up to the time at which the first quantifiable concentration above the LOQ value was observed. Concentrations below the LOQ value between two quantifiable concentrations were considered as missing. Trailing concentrations below the LOQ value were not used in calculations.
Cmax the observed maximum concentration in plasma measured after dosing.
tmax the time at which Cmax was apparent.
λz the terminal rate constant (λz) was estimated by log-linear regression analysis on data points visually assessed, to be on the terminal log-linear phase. For the slope of the terminal elimination phase to be accepted as reliable, the following criteria were used: • the terminal data points were apparently randomly distributed about a single straight line (on visual inspection), • a minimum of three data points, including the last measured data point and excluding Cmax, were available for the regression.
t1/2 the terminal plasma half-life (t1/2) was calculated according to the following equation: […]
AUC0-t the area under the concentration-time curve from time zero (pre-dose) to the time of last quantifiable concentration (t) was calculated using a linear trapezoidal method.
[AUC0-∞=AUC0-t+(Ct/λz)], where Ct was the observed concentration of drug for the last sample on the PK profile in which the drug was detected, and λz was as defined above.
The extrapolated area under the curve, expressed as a percentage of the total area, AUCinf, was also calculated as: Area Extra (%)=(AUC0-∞−AUC0-t)/AUC0-∞*100%.

Cc1cc(C2=NOC(c3cc(Cl)cc(Cl)c3)(C(F)(F)F)C2)ccc1C(=O)NCC(=O)NCC(F)(F)F (centres unmarked) [fluralaner, Fluralaner]
fluralaner concentration levels, individual animal (24 h, oral 35 μg/kg Days 0-3, dogs): 16.5 ng/mL and 16.9 ng/mL (2×) and 18.1 ng/mL and 19.0 ng/mL
fluralaner concentration levels, individual animal (48 h, oral 35 μg/kg Days 0-3, dogs): 27.8 ng/mL and 32.2 ng/mL and 37.2 ng/mL and 35.2 ng/mL and 40.9 ng/mL
fluralaner concentration levels, individual animal (72 h, oral 35 μg/kg Days 0-3, dogs): 60.6 ng/mL and 47.9 ng/mL and 61.0 ng/mL and 42.0 ng/mL and 57.7 ng/mL
fluralaner concentration levels, individual animal (96 h, oral 35 μg/kg Days 0-3, dogs): 76.6 ng/mL and 91.6 ng/mL and 84.5 ng/mL and 71.8 ng/mL and 92.4 ng/mL
fluralaner concentration levels, individual animal (120 h, oral 35 μg/kg Days 0-3, dogs): 60.1 ng/mL and 63.6 ng/mL and 55.6 ng/mL and 62.9 ng/mL and 70.0 ng/mL
fluralaner concentration levels, individual animal (240 h, oral 35 μg/kg Days 0-3, dogs): 45.8 ng/mL and 34.1 ng/mL and 36.3 ng/mL and 51.6 ng/mL and 44.4 ng/mL
fluralaner concentration levels, individual animal (360 h, oral 35 μg/kg Days 0-3, dogs): 39.2 ng/mL and 39.6 ng/mL and 43.5 ng/mL and 37.4 ng/mL and 35.2 ng/mL
fluralaner concentration levels, individual animal (480 h, oral 35 μg/kg Days 0-3, dogs): 26.1 ng/mL and 17.1 ng/mL and 21.1 ng/mL and 26.6 ng/mL and 18.4 ng/mL
fluralaner concentration levels, individual animal (576 h, oral 35 μg/kg Days 0-3, dogs): 22.0 ng/mL and 14.7 ng/mL and 15.0 ng/mL and 22.2 ng/mL and 13.3 ng/mL
fluralaner concentration levels, individual animal (672 h, oral 35 μg/kg Days 0-3, dogs): 15.1 ng/mL and 9.1 ng/mL and 10.3 ng/mL and 16.0 ng/mL and 10.4 ng/mL
steady state concentrations (after the fourth dose of 35 μg/kg per day oral): not reached
tmax (beagle, dog, plasma, 35 ug/kg, oral 35 μg/kg Days 0-3, dogs, read-out: Tmax, individual animal): 96 h
concentration at 24 h (beagle, dog, plasma, 24 h, oral 35 μg/kg Days 0-3, dogs, n=6, read-out: fluralaner concentration levels, GeoMean): 17.3 ng/mL
concentration at 24 h (beagle, dog, plasma, 24 h, oral 35 μg/kg Days 0-3, dogs, n=6, read-out: fluralaner concentration levels, Maximum): 19 ng/mL
concentration at 24 h (beagle, dog, plasma, 24 h, oral 35 μg/kg Days 0-3, dogs, n=6, read-out: fluralaner concentration levels, Mean): 17.4 ng/mL
concentration at 24 h (beagle, dog, plasma, 24 h, oral 35 μg/kg Days 0-3, dogs, n=6, read-out: fluralaner concentration levels, Median): 16.9 ng/mL
concentration at 24 h (beagle, dog, plasma, 24 h, oral 35 μg/kg Days 0-3, dogs, n=6, read-out: fluralaner concentration levels, Minimum): 18.5 ng/mL
concentration at 24 h (beagle, dog, plasma, 24 h, oral 35 μg/kg Days 0-3, dogs, read-out: fluralaner concentration levels, individual animal): 16.7 ng/mL
concentration at 48 h (beagle, dog, plasma, 48 h, oral 35 μg/kg Days 0-3, dogs, n=6, read-out: fluralaner concentration levels, GeoMean): 32.8 ng/mL
concentration at 48 h (beagle, dog, plasma, 48 h, oral 35 μg/kg Days 0-3, dogs, n=6, read-out: fluralaner concentration levels, Maximum): 40.9 ng/mL
concentration at 48 h (beagle, dog, plasma, 48 h, oral 35 μg/kg Days 0-3, dogs, n=6, read-out: fluralaner concentration levels, Mean): 33.2 ng/mL
concentration at 48 h (beagle, dog, plasma, 48 h, oral 35 μg/kg Days 0-3, dogs, n=6, read-out: fluralaner concentration levels, Median): 33.7 ng/mL
concentration at 48 h (beagle, dog, plasma, 48 h, oral 35 μg/kg Days 0-3, dogs, n=6, read-out: fluralaner concentration levels, Minimum): 26.1 ng/mL
concentration at 48 h (beagle, dog, plasma, 48 h, oral 35 μg/kg Days 0-3, dogs, read-out: fluralaner concentration levels, individual animal): 26.1 ng/mL
concentration at 72 h (beagle, dog, plasma, 72 h, oral 35 μg/kg Days 0-3, dogs, n=6, read-out: fluralaner concentration levels, GeoMean): 51.7 ng/mL
concentration at 72 h (beagle, dog, plasma, 72 h, oral 35 μg/kg Days 0-3, dogs, n=6, read-out: fluralaner concentration levels, Maximum): 61 ng/mL
concentration at 72 h (beagle, dog, plasma, 72 h, oral 35 μg/kg Days 0-3, dogs, n=6, read-out: fluralaner concentration levels, Mean): 52.3 ng/mL
concentration at 72 h (beagle, dog, plasma, 72 h, oral 35 μg/kg Days 0-3, dogs, n=6, read-out: fluralaner concentration levels, Median): 52.8 ng/mL
concentration at 72 h (beagle, dog, plasma, 72 h, oral 35 μg/kg Days 0-3, dogs, n=6, read-out: fluralaner concentration levels, Minimum): 42 ng/mL
concentration at 72 h (beagle, dog, plasma, 72 h, oral 35 μg/kg Days 0-3, dogs, read-out: fluralaner concentration levels, individual animal): 44.6 ng/mL
concentration at 96 h (beagle, dog, plasma, 96 h, oral 35 μg/kg Days 0-3, dogs, n=6, read-out: fluralaner concentration levels, GeoMean): 84 ng/mL
concentration at 96 h (beagle, dog, plasma, 96 h, oral 35 μg/kg Days 0-3, dogs, n=6, read-out: fluralaner concentration levels, Maximum): 92.4 ng/mL
concentration at 96 h (beagle, dog, plasma, 96 h, oral 35 μg/kg Days 0-3, dogs, n=6, read-out: fluralaner concentration levels, Mean): 84.4 ng/mL
concentration at 96 h (beagle, dog, plasma, 96 h, oral 35 μg/kg Days 0-3, dogs, n=6, read-out: fluralaner concentration levels, Median): 87 ng/mL
concentration at 96 h (beagle, dog, plasma, 96 h, oral 35 μg/kg Days 0-3, dogs, n=6, read-out: fluralaner concentration levels, Minimum): 71.8 ng/mL
concentration at 96 h (beagle, dog, plasma, 96 h, oral 35 μg/kg Days 0-3, dogs, read-out: fluralaner concentration levels, individual animal): 89.4 ng/mL
concentration at 120 h (beagle, dog, plasma, 120 h, oral 35 μg/kg Days 0-3, dogs, n=6, read-out: fluralaner concentration levels, GeoMean): 63.8 ng/mL
concentration at 120 h (beagle, dog, plasma, 120 h, oral 35 μg/kg Days 0-3, dogs, n=6, read-out: fluralaner concentration levels, Maximum): 72.3 ng/mL
concentration at 120 h (beagle, dog, plasma, 120 h, oral 35 μg/kg Days 0-3, dogs, n=6, read-out: fluralaner concentration levels, Mean): 64.1 ng/mL
concentration at 120 h (beagle, dog, plasma, 120 h, oral 35 μg/kg Days 0-3, dogs, n=6, read-out: fluralaner concentration levels, Median): 63.2 ng/mL
concentration at 120 h (beagle, dog, plasma, 120 h, oral 35 μg/kg Days 0-3, dogs, n=6, read-out: fluralaner concentration levels, Minimum): 55.6 ng/mL
concentration at 120 h (beagle, dog, plasma, 120 h, oral 35 μg/kg Days 0-3, dogs, read-out: fluralaner concentration levels, individual animal): 72.3 ng/mL
concentration at 240 h (beagle, dog, plasma, 240 h, oral 35 μg/kg Days 0-3, dogs, n=6, read-out: fluralaner concentration levels, GeoMean): 43.9 ng/mL
concentration at 240 h (beagle, dog, plasma, 240 h, oral 35 μg/kg Days 0-3, dogs, n=6, read-out: fluralaner concentration levels, Maximum): 54.9 ng/mL
concentration at 240 h (beagle, dog, plasma, 240 h, oral 35 μg/kg Days 0-3, dogs, n=6, read-out: fluralaner concentration levels, Mean): 44.5 ng/mL
concentration at 240 h (beagle, dog, plasma, 240 h, oral 35 μg/kg Days 0-3, dogs, n=6, read-out: fluralaner concentration levels, Median): 45.1 ng/mL
concentration at 240 h (beagle, dog, plasma, 240 h, oral 35 μg/kg Days 0-3, dogs, n=6, read-out: fluralaner concentration levels, Minimum): 34.1 ng/mL
concentration at 240 h (beagle, dog, plasma, 240 h, oral 35 μg/kg Days 0-3, dogs, read-out: fluralaner concentration levels, individual animal): 54.9 ng/mL
concentration at 360 h (beagle, dog, plasma, 360 h, oral 35 μg/kg Days 0-3, dogs, n=6, read-out: fluralaner concentration levels, GeoMean): 39.5 ng/mL
concentration at 360 h (beagle, dog, plasma, 360 h, oral 35 μg/kg Days 0-3, dogs, n=6, read-out: fluralaner concentration levels, Maximum): 43.5 ng/mL
concentration at 360 h (beagle, dog, plasma, 360 h, oral 35 μg/kg Days 0-3, dogs, n=6, read-out: fluralaner concentration levels, Mean): 39.6 ng/mL
concentration at 360 h (beagle, dog, plasma, 360 h, oral 35 μg/kg Days 0-3, dogs, n=6, read-out: fluralaner concentration levels, Median): 39.4 ng/mL
concentration at 360 h (beagle, dog, plasma, 360 h, oral 35 μg/kg Days 0-3, dogs, n=6, read-out: fluralaner concentration levels, Minimum): 35.2 ng/mL
concentration at 360 h (beagle, dog, plasma, 360 h, oral 35 μg/kg Days 0-3, dogs, read-out: fluralaner concentration levels, individual animal): 42.8 ng/mL
concentration at 480 h (beagle, dog, plasma, 480 h, oral 35 μg/kg Days 0-3, dogs, n=6, read-out: fluralaner concentration levels, GeoMean): 22.1 ng/mL
concentration at 480 h (beagle, dog, plasma, 480 h, oral 35 μg/kg Days 0-3, dogs, n=6, read-out: fluralaner concentration levels, Maximum): 26.6 ng/mL
